Assay results: the supplement of paper PMC5908809

Tests used:
[1] = test system: normal primary NK cells, pool 1 (3 donors), resting (IL-2 0 ng/mL); test: drug sensitivity score (DSS) (DSS units); higher = more sensitive; extreme values may be limits of the assay; conditions: 72 h
IMC-1 (IL-2 20 ng/mL) [2] = test: as above; conditions: 72 h
YT (IL-2 2.5 ng/mL) [3] = test: as above; conditions: 72 h
[4] = test system: normal primary NK cells, pool 3 (3 donors) (IL-2 2.5 ng/mL); test: as above; conditions: 72 h
DERL-7 (IL-2 2.5 ng/mL) [5] = test: as above; conditions: 72 h
NK-92 (IL-2 2.5 ng/mL) [6] = test: as above; conditions: 72 h
NK-YS (IL-2 2.5 ng/mL) [7] = test: as above; conditions: 72 h
KHYG-1 (IL-2 2.5 ng/mL) [8] = test: as above; conditions: 72 h
NKL (IL-2 2.5 ng/mL) [9] = test: as above; conditions: 72 h
SNK-6 (IL-2 2.5 ng/mL) [10] = test: as above; conditions: 72 h
[11] = test system: normal primary NK cells, pool 2 (3 donors) (IL-2 2.5 ng/mL); test: as above; conditions: 72 h
[12] = test system: normal primary NK cells, pool 1 (3 donors) (IL-2 2.5 ng/mL); test: as above; conditions: 72 h
KAI3 (IL-2 2.5 ng/mL) [13] = test: as above; conditions: 72 h
[14] = test system: normal NK cells expanded with K562-aAPC; test: as above; conditions: 72 h; IL-2 2.5 ng/mL
Protocol: (§1)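 Drug sensitivity and resistance testing on K562-aAPC-expanded normal NK cells: 5 concentrations (10-fold steps over a 10,000-fold range), 72 h at 37 °C, viability by CellTiter-Glo normalised to DMSO and benzethonium chloride controls; DSS from the fitted curve.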

[15] = test system: normal NK cells expanded with K562-aAPC; test: percent inhibition of viability; higher = more inhibition; conditions: 72 h, IL-2 2.5 ng/mL
Protocol: as §1

[16] = test system: normal primary NK cells, pool 1 (3 donors), resting (IL-2 0 ng/mL); test: as above; conditions: 72 h
IMC-1 (IL-2 20 ng/mL) [17] = test: as above; conditions: 72 h
YT (IL-2 2.5 ng/mL) [18] = test: as above; conditions: 72 h
[19] = test system: normal primary NK cells, pool 3 (3 donors) (IL-2 2.5 ng/mL); test: as above; conditions: 72 h
DERL-7 (IL-2 2.5 ng/mL) [20] = test: as above; conditions: 72 h
NK-92 (IL-2 2.5 ng/mL) [21] = test: as above; conditions: 72 h
NK-YS (IL-2 2.5 ng/mL) [22] = test: as above; conditions: 72 h
KHYG-1 (IL-2 2.5 ng/mL) [23] = test: as above; conditions: 72 h
NKL (IL-2 2.5 ng/mL) [24] = test: as above; conditions: 72 h
SNK-6 (IL-2 2.5 ng/mL) [25] = test: as above; conditions: 72 h
[26] = test system: normal primary NK cells, pool 2 (3 donors) (IL-2 2.5 ng/mL); test: as above; conditions: 72 h
[27] = test system: normal primary NK cells, pool 1 (3 donors) (IL-2 2.5 ng/mL); test: as above; conditions: 72 h
KAI3 (IL-2 2.5 ng/mL) [28] = test: as above; conditions: 72 h

CC(C)C[C@H](NC(=O)[C@H](Cc1ccccc1)NC(=O)c1cnccn1)B(O)O [Bortezomib] (max concentration tested 1000 nM)
Conditions	drug sensitivity score
DERL-7 (IL-2 2.5 ng/mL) [5]	33.9
IMC-1 (IL-2 20 ng/mL) [2]	30.2
KAI3 (IL-2 2.5 ng/mL) [13]	30.6
KHYG-1 (IL-2 2.5 ng/mL) [8]	30.9
NK-92 (IL-2 2.5 ng/mL) [6]	30.2
NK-YS (IL-2 2.5 ng/mL) [7]	30.7
NKL (IL-2 2.5 ng/mL) [9]	30.3
SNK-6 (IL-2 2.5 ng/mL) [10]	32.6
YT (IL-2 2.5 ng/mL) [3]	30.8
[1]	26.8
[4]	29.5
[11]	29.2
[12]	29.3
[14]	31.2

percent inhibition of viability [%]
Conditions	0.1 nM	1 nM	10 nM	100 nM	1000 nM
DERL-7 (IL-2 2.5 ng/mL) [20]	-10.9	21.2	101	101	100
IMC-1 (IL-2 20 ng/mL) [17]	-1.29	-3.94	101	101	101
KAI3 (IL-2 2.5 ng/mL) [28]	-14.4	-0.34	102	105	97
KHYG-1 (IL-2 2.5 ng/mL) [23]	-3.11	-0.47	105	108	100
NK-92 (IL-2 2.5 ng/mL) [21]	-4.96	-5.77	102	107	98.3
NK-YS (IL-2 2.5 ng/mL) [22]	-5.54	-1.32	104	106	98.5
NKL (IL-2 2.5 ng/mL) [24]	-12.9	-8.26	105	107	98.5
SNK-6 (IL-2 2.5 ng/mL) [25]	21.6	12.7	98.5	101	100
YT (IL-2 2.5 ng/mL) [18]	-2.41	0.1	103	107	101
[15]	-2.23	4.9	100	101	100
[16]	-34.8	-55	91.9	94.3	94
[19]	-3.11	-8.2	98.5	98.7	99.1
[26]	-2.25	0.14	94.5	95.3	96.2
[27]	-11.7	-7.66	97.5	98.1	98.4

Nc1nc2[nH]cc(CCc3ccc(C(=O)N[C@@H](CCC(=O)O)C(=O)O)cc3)c2c(=O)[nH]1 [Pemetrexed] (max concentration tested 10000 nM)
Conditions	drug sensitivity score
IMC-1 (IL-2 20 ng/mL) [2]	20.9
[4]	0
[11]	0
[14]	8.95

percent inhibition of viability [%]
Conditions	1 nM	10 nM	100 nM	1000 nM	10000 nM
IMC-1 (IL-2 20 ng/mL) [17]	-2.55	-0.76	27.5	93	94.2
[15]	-3.65	-7.62	29.1	32.5	32.7
[19]	-6.87	-6.65	-7.52	-11.4	-7.17
[26]	-0.42	-8.75	-3.95	-3.15	-2.1
